Among the data in patent US6475768B1 (Forskarpatent I Syd AB, priority 2000, dated 2002) are Ki for xylitol and Ki values, retold here.

Residue numbers refer to the chain shown, from its start.

Assay [1] has as its target Thermus thermophilus xylose isomerase mutants (1010, 1021, 1024, 1026). Description: Inhibition constant for xylitol, mutants compared to wildtype. The assay is classed as biochemical. The note with it: the mutants compared to the wildtype enzyme, xylose 20-400 mM. The protocol: (§1) The cells were harvested by centrifugation in the stationary phase of growth and washed once with ice cold distilled water. Washed cells were resusprended in 100 mM triethanolamine, pH 7.0, 0.5 mg/ml lysozyme (130000 U/mg), 0.25 mg/ml DNase, and 1 mM phenylmethylsulphonyl fluoride (PMSF) in dimethylsulfoxide (DMSO). The suspensions were kept at room temperature for one hour and then on ice for two hours before being put in a freezer at −20° C. The cell lysates were thawed on ice, cell debris was removed by centrifugation (1300 rpm for 15 minutes at 4° C.) and the supernatants were used as the crude enzyme preparations.
The reaction was terminated after 10 minutes by adding 150 μl 50% trichloroaceticacid. The reaction mixture was neutralized with 185 μl 2 M Na2CO3. The formed xylulose or fructose was measured on a COBAS MIRA (Roche) automated spectrophotometer via enzymatic reduction with 0.04 or 0.5 units of Sorbitol Dehydrogenase (purchased from Roche), respectively in the presence of 0.15 mM NADH at pH 7.0, 37° C. in 200 μl reaction volume. The rate of disappearance of NADH was followed at 340 nm and the concentration of D-xylulose or D-fructose was calculated using calibration curves. […] The specific activity (U min^−1 mg^−1) was determined from the activity and the protein concentration of the crude enzyme preparations. […]

Assay [2] has as its target T1, Thermus thermophilus xylose isomerase (xylA), mutant 1021 (M1021) (Thermus thermophilus, UniProt P26997, E372G/V379A).
T1 construct: made in house; host or cells: E. coli HB101 (crude lysate)
T1 sequence (P26997 1-387 E372G/V379A): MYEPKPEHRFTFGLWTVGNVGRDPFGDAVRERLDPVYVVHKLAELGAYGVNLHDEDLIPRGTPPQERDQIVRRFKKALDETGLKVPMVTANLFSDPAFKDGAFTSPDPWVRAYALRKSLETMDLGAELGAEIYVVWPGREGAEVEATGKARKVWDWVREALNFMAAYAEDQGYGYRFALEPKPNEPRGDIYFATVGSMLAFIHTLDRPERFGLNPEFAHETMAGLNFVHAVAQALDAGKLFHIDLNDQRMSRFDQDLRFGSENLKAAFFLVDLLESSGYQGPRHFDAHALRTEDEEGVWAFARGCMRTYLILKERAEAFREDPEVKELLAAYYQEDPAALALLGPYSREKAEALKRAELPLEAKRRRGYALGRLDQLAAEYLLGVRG
Description: Kinetic characterisation of mutant xylose isomerase 1021 (xylose/glucose isomerase activity, xylitol inhibition). The assay is classed as biochemical. As for the experimental part: as §1
(§2) Protein concentration was determined with the Bradford method (Bradford (1976)) using the Pierce protein reagent with bovine serum albumin as standard.
The reaction was terminated after 10 minutes by adding 150 μl 50% trichloroaceticacid. The reaction mixture was neutralized with 185 μl 2 M Na2CO3. The formed xylulose or fructose was measured on a COBAS MIRA (Roche) automated spectrophotometer via enzymatic reduction with 0.04 or 0.5 units of Sorbitol Dehydrogenase (purchased from Roche), respectively in the presence of 0.15 mM NADH at pH 7.0, 37° C. in 200 μl reaction volume. The rate of disappearance of NADH was followed at 340 nm and the concentration of D-xylulose or D-fructose was calculated using calibration curves. […]

Assay [3] addresses T2, Thermus thermophilus xylose isomerase, wild type (nucleic acid sequence SEQ ID NO: 2) (Thermus thermophilus, UniProt P26997).
T2 sequence (P26997 1-387): T1 sequence (P26997 1-387 E372G/V379A) with G372E, A379V
Description: biochemical.

Assay [4] addresses Thermus thermophilus xylose isomerase (xylA), mutant 1010 (M1010) (Thermus thermophilus, UniProt P26997). The assay is classed as biochemical. The note with it: read-out: Ki xylitol; mutant 1010, xylose 20-400 mM, fixed xylitol concentrations. The protocol: as §1, §2
The reaction was terminated after 10 minutes by adding 150 μl 50% trichloroaceticacid. The reaction mixture was neutralized with 185 μl 2 M Na2CO3. The formed xylulose or fructose was measured on a COBAS MIRA (Roche) automated spectrophotometer via enzymatic reduction with 0.04 or 0.5 units of Sorbitol Dehydrogenase (purchased from Roche), respectively in the presence of 0.15 mM NADH at pH 7.0, 37° C. in 200 μl reaction volume. The rate of disappearance of NADH was followed at 340 nm and the concentration of D-xylulose or D-fructose was calculated using calibration curves. […] The specific activity (U min^−1 mg^−1) was determined from the activity and the protein concentration of the crude enzyme preparations.
The kinetic parameters Vmax (μmol min^−1 mg^−1) and Km (mM) were determined from Michaelis-Menten plots of specific activities at various substrate concentrations by nonlinear regression analysis with Sigma Plot (SSPS Inc.) software. Typically, duplicate measurements were used to determine the Km value at 6-10 concentrations of the substrate, with a concentration range covering the value of Km.

Chain of Thermus thermophilus xylose isomerase (xylA), mutant 1010 (M1010) (P26997 whole entry, change not shown): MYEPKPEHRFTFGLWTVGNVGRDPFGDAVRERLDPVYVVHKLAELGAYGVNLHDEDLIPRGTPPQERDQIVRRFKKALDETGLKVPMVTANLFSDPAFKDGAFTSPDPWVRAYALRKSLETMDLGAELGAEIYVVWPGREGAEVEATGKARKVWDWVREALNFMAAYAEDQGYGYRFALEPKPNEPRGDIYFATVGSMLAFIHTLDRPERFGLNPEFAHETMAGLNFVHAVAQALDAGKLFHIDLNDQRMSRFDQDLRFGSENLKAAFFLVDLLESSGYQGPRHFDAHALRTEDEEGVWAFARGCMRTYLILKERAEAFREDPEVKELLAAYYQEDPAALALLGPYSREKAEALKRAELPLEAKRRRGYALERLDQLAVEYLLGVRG

For `OC[C@@H](O)[C@H](O)[C@@H](O)CO` [xylitol], the Ki for xylitol result in assay [1] was “higher Ki for xylitol”. Moreover, the Ki in assay [2] stood at 33.2 mM; in assay [3], 4.6 mM; in assay [4] it was 10.1 mM.
